# Patent publication US9371265B2, “Compositions and methods related to inhibitors of JAK kinase” (EP PHARMA, INC., priority 2012, dated 2016)
# Values joined by “and” are separate entries in the source; they are usually repeats but may differ in a detail not shown here. Equal entries are not always repeated.
# Columns and labels:
# [1] = tested on: CD30; test: CD30 cell surface expression in SU-DHL-1 cells (flow cytometry); format: cell-based, human; details: 24 hours
# Description: FIGS. 6A-6B. EP009 treatment disrupts constitutive JAK3/STAT3 pathway activation and down-regulates CD30 cell surface expression in human ALCL cells. (A) Kit225 (lane a), SUP-M2 (lane b), Karpas299 (lane c), DEL (lane d) and SU-DHL-1 (lane e) total cell lysates were separated by 7.5% SDS-PAGE (upper panel) or were immunoprecipitated (IP) with JAK3 antibodies (lower panel) and separated on 7.5% SDS-PAGE, and then subjected to Western blot (WB) analysis with the indicated antibodies. (B) SU-DHL-1 cells were treated with vehicle (PBS; lane a) or increasing amounts of EP009 (0-40 μM; lanes b-e) for 12 hours. Cells were then lysed, clarified, and immunoprecipitated (IP) with anti-JAK3 (α-JAK3), and subjected to Western blot (WB) analysis with anti-phosphotyrosine (α-pY). […] Values represent pSTAT mean fluorescence intensity (MFI) normalized to corresponding GAPDH MFI, while error bars represent the standard deviation (n=2). Statistical significance was determined using Student's t-test. […] Cells were then analyzed by flow cytometry for CD30 expression. […]
# Cells were treated in the absence or presence of the indicated concentrations of EP009 for 24 hours, and stained with FITC-labeled mouse anti-human CD30 (Millipore). Stained cells were analyzed by flow cytometry (Cytomics FC500, Beckman Coulter) and quantitated with CXP analysis software version 2.2 (Beckman Coulter) as previously described.24
# [2] = Oral pharmacokinetics in rats (plasma, LC-MS/MS); format: in vivo, Sprague Dawley rats; details: single oral dose of 200 mg/kg
# Experimental: FIGS. 9A-9B Pharmacokinetics and efficacy of EP009 in vivo. (A) Sprague Dawley rats were administered EP009 by oral gavage (200 mg/kg) and pharmacokinetics measured by analysis of plasma concentrations at indicated time points. Values represent mean concentrations, while error bars represent the standard deviation (n=5). (B) Therapeutic study of EP009 in SU-DHL-1 model in SCID/NOD mice.
# EP009 (200 mg/kg) was administered orally to Sprague Dawley rats (Texas Animal Specialties) of ˜200 g weight (n=5) after an overnight fast. Blood (˜200 μl) was drawn at 0.5, 1, 2, 4, 8 and 24 hours after dosing and plasma was collected and snap-frozen in liquid nitrogen. EP009 plasma concentrations were determined by a liquid chromatography tandem mass spectrometry (LC-MS/MS) system. This system included a HPLC (Shimadzu Scientific Corporation) with an ACE C18 column (50×2.1 mm, 5 um) and an API-4000 (triple-quadruple) mass spectrometer (ABSciex, Inc) with an electrospray ionization source. A positive multiple reaction monitoring (MRM) scan was applied. The mobile phase A and B used in this study were 0.1% formic acid in 5 mM ammonium acetate and 0.1% formic acid in 100% acetonitrile. Plasma samples (50 μL) were mixed with 50 μL of blank plasma and 300 μL of internal standard solution (Verapamil, 20 ng/mL in 100% acetonitrile). After vortexing for 1 min and centrifuging for 5 min at 16,000×g, 300 μL supernatants were analyzed by LC-MS/MS. The limit of quantitation was 1 ng/mL of EP009 in plasma and the calibration range was from 1 to 2000 ng/mL.
# [3] = biological target: AXL (Homo sapiens, UniProt P30530); test: Kinase panel: AXL; format: biochemical; details: 10 μM EP009
# Experimental: (§1) Achieving JAK3 selectivity remains a significant challenge in the development of new small molecules for the treatment of cancer and immune-derived diseases. As such, the inventors employed cell-based screening assays of small-molecule libraries based upon the chemical scaffold of the established JAK3 inhibitor NC1153 (Stepkowski et al., J Immunol. (2005), 175(7):4236-4246) EP009 (FIG. 2A) was selected as a lead compound due to improved intrinsic stability (>95% purity in various solvents at 37° C. for 24 hours; FIG. 3) and high-degree of JAK3 selectivity. To test JAK3 versus JAK2 specificity of EP009, the IL-2/JAK3-dependent Kit225, and IL-3/JAK2-dependent BaF/3 cell lines were used. Kit225 and BaF/3 cells growing in the presence of IL-2 or IL-3, respectively, were treated with ascending concentrations of EP009 for 12 hours and cellular JAK3 and JAK2 tyrosine phosphorylation levels detected by Western blot analysis (FIGS. 2B and 2C). Following densitometric analysis, EP009 was determined to dose-dependently reduce IL-2-mediated JAK3 tyrosine phosphorylation with a cellular 50% inhibitory concentration (IC50) between 10 and 20 μM (FIG. 2B). […] To globally evaluate specificity, the inhibitory activity of EP009 was measured against a panel of protein kinases distributed throughout the kinome using the scanEDGE profiling service (KINOMEscan). […]
# [4] = biological target: CSF1R (Homo sapiens, UniProt P07333); test: Kinase panel: CSF1R; format: biochemical; details: 10 μM EP009
# Experimental: as §1
# [5] = biological target: MARK3 (Homo sapiens, UniProt P27448); test: Kinase panel: MARK3; format: biochemical; details: 10 μM EP009
# Experimental: as §1
# [6] = biological target: PLK1 (Homo sapiens, UniProt P53350); test: Kinase panel: PLK1; format: biochemical; details: 10 μM EP009
# Experimental: as §1
# PLK1, sequence (P53350 whole entry): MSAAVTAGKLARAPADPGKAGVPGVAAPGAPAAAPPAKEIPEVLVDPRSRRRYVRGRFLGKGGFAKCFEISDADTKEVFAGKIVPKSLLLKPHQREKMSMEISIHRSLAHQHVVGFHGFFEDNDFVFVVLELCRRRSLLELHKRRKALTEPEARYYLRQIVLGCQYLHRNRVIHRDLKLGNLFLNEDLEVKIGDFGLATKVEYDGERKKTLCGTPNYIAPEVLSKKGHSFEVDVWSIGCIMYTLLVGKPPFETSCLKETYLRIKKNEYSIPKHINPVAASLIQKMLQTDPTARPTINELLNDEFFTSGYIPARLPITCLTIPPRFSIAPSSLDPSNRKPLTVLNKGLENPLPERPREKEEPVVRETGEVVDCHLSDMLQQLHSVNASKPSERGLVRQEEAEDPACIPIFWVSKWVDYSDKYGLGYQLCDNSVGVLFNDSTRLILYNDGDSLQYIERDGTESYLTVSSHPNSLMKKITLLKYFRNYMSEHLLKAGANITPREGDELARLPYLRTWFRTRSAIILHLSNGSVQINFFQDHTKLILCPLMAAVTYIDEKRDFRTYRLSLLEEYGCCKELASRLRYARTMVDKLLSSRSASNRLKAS
# MARK3, sequence (P27448 whole entry): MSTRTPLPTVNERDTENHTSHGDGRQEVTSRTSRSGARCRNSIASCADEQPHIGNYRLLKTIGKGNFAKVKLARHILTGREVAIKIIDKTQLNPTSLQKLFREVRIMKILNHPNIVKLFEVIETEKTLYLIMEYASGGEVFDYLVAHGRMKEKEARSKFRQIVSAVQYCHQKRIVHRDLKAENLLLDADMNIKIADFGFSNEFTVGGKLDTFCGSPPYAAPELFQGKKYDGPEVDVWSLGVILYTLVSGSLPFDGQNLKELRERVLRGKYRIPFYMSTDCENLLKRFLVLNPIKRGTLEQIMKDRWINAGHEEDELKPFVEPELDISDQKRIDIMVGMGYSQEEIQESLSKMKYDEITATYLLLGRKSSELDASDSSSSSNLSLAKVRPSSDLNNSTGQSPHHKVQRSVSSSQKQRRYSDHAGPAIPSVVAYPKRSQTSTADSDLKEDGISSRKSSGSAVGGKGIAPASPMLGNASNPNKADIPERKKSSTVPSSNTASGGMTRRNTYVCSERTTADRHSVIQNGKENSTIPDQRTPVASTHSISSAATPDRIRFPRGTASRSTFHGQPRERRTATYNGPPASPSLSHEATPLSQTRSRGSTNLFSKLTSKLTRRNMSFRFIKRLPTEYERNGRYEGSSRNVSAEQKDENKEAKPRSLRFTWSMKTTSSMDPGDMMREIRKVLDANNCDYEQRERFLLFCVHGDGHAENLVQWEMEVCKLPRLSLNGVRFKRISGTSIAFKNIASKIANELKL
# AXL, sequence (P30530 26-894): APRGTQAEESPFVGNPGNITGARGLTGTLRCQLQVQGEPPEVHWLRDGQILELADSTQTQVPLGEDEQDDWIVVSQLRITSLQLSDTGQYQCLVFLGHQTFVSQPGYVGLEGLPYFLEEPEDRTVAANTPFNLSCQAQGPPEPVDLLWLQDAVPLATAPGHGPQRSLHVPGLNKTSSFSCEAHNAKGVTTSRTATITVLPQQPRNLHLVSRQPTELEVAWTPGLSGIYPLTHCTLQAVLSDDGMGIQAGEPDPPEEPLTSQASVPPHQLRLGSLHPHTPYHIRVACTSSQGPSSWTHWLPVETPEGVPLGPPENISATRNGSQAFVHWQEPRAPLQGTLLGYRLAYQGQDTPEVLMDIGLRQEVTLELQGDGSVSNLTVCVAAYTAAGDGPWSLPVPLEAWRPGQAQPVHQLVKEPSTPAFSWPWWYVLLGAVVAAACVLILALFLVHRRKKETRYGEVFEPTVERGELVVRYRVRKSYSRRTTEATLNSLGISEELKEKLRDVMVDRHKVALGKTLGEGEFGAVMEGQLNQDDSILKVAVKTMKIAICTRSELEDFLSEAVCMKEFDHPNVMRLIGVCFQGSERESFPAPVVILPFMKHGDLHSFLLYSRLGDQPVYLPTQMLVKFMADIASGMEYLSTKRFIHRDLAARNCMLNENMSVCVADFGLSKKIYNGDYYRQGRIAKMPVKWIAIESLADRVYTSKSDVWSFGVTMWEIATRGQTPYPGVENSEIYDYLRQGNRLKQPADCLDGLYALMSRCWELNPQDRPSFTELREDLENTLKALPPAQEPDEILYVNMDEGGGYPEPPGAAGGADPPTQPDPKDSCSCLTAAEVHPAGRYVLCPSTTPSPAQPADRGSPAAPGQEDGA
# CSF1R, sequence (P07333 20-972): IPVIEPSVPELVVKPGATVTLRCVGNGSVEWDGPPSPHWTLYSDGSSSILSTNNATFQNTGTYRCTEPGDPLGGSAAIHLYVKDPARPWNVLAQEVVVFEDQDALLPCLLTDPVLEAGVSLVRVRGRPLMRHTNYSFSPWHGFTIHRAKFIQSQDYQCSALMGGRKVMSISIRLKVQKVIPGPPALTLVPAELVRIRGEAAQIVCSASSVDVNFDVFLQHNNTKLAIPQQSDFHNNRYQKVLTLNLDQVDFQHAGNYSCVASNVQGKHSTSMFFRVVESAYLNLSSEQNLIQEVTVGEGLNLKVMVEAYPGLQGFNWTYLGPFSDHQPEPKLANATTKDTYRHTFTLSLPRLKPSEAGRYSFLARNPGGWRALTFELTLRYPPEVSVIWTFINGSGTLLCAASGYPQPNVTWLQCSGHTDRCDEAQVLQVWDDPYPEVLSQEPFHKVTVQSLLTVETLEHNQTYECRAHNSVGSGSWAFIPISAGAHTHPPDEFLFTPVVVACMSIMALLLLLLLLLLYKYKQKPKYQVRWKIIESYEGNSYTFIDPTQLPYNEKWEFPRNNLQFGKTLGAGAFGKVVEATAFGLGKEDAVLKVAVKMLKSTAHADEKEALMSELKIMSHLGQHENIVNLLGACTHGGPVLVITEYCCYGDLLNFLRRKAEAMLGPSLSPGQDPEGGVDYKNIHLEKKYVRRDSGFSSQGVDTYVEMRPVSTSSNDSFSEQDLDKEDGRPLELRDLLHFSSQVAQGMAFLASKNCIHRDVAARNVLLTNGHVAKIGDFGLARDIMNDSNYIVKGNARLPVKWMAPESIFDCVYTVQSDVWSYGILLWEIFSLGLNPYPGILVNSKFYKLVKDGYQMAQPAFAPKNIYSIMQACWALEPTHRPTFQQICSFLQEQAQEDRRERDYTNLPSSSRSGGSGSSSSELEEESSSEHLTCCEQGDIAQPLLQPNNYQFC
structure (smiles),measurement,setting,value
"C=C1CCCCCCCCCC(CO)C1=O (stereo not drawn) [EP009, 2-(Hydroxymethyl)-12-methylenecyclododecanone]",effect on CD30 surface expression,[1],dose-dependent CD30 down-regulation
same,AUC(0-t),"[2]; Sprague Dawley, rat, plasma, read-out: area under the concentration-time curve (AUC-t)",2110 ng·h/mL and 6.1 µM·h
same,half-life,"[2]; Sprague Dawley, rat, plasma, read-out: half-life (t1/2) (converted)",1 h
same,Cmax,"[2]; Sprague Dawley, rat, plasma, read-out: peak plasma concentration (Cmax)",2000 ng/mL and 5.74 µM
same,plasma levels eight hours after dosing,[2],declined to the limit of detection
same,Kinase Activity (% of Control),[3],96 % of Control
same,Kinase Activity (% of Control),[4],94 % of Control
same,Kinase Activity (% of Control),[5],100 % of Control
same,Kinase Activity (% of Control),[6],100 % of Control
